Assay results taken from patent US20130210907A1, “METHOD FOR PREVENTING OR TREATING ENTEROCHROMAFFIN CELL HYPERPLASIA-RELATED DISEASES BY QUERCETIN ADMINISTRATION” (HONG KONG BAPTIST UNIVERSITY, priority 2012, published 2013).

Tests used:
[1] = system: PI-IBS rats; experiment: Colonic tissue 5-HT content (capillary electrophoresis, laser-induced fluorescence); assay type: in vivo, rat; conditions: for 5-HT content: PI-IBS rats, colon
Procedure: Six groups of 5 rats are tested. The groups setting and treatments are as described in Example 1. Different from Example 1, AWR test are not applied to the rats in this experiment in order to obtain the basal data without CRD stimulus. After the last drug administration, a 6 cm proximal colon (1-2 cm from caecum) is collected and divided into 3 parts, the proximal is fixed in 4% paraformaldehyde and embedded in paraffin for EC cell staining; the middle part is collected for 5-HT content measurement and electron microscopic evaluation, and the distal part is for western blotting analysis.
(§1) 5-HT content in the colon tissue is assayed based on our previously reported procedure in Qi S D, Tian S L, Xu H X, Sung J J, Bian Z X. Quantification of luminally released serotonin in rat proximal colon by capillary electrophoresis with laser-induced fluorescence detection. Anal Bioanal Chem. 2009 April; 393(8):2059-66. Briefly, the colon segment is homogenized in 15% iced trichloroacetic acid; for 2 min and stored at 4° C. for 2 h. After centrifuge at 10,000 G for 15 min, the supernatant of each sample is filtered using 0.22 μm filters and extracted with diethyl ether for five times to remove the trichloroacetic acid. The prepared samples are added to derivatization solution (150 mM sodium tetraborate, 25% acetonitrile, 2 mM CFSE) and incubated for […] in dark at room temperature. The 5-HT content is analyzed by capillary electrophoresis with laser-induced fluorescence detection and expressed as nanogram per milligram (wet weight of tissue).

[2] = system: QGP-1 cells; experiment: Cell cycle analysis by flow cytometry (propidium iodide); assay type: cell-based, human; conditions: 24 h
Procedure: QGP-1 cells are seeded at a density of 10×10^4 cells/ml and pre-incubated overnight. After incubation with or without Quercetin (0-100 μM) for 24 h, cells are harvested by trypsinization and fixed in 70% ethanol at 4° C. overnight. The cells are centrifuged to remove ethanol and washed twice using ice-cold PBS. The cell pallets are resuspended in 500 n1 propidium iodide solution (0.1% Triton X-100, 50 μg/ml propidium iodide in PBS) containing 50 μg/ml RNase and incubated at 37° C. for 30 min and protected from the light. The DNA content of 10,000 cells is detected by BD FASCanto Flow Cytometry and analyzed using […] software (Becton Dickinson, Heidelberg, Germany). The data are representative of those obtained in at least three experiments.

[3] = system: normal rats; experiment: Colonic EC cell density in normal rats; assay type: in vivo, rat; conditions: 10 mg/kg i.g., 14 days
Procedure: Tissue sections (5-μm thick) are deparaffinized and rehydrated for silver staining. Briefly, sections are incubated with 5% ammoniacal silver solution for 4 h at room temperature, then 2 h in 56° C. and subsequently 12 h at room temperature in a dark humidified chamber. After rinsing with water, 5% sodium hyposulfite is added and the tissue sections are incubated for 5 min at room temperature. The brown to black silver precipitate in the cytoplasm of EC cells represents as a positive reaction. A researcher blinded to treatment counted 5 random fields at 200× magnifications for each section, and the number of EC cells per mm^2 of mucosa is quantified using Image J NIH software.
(§2) To identify whether the effects of Quercerin in PI-IBS rats are specific, pain threshold pressure, colonic EC cell number and 5-HT content are further evaluated in normal rats treated with Quercetin. Briefly, Quercetin at the dose of 10 mg/kg is administered to normal rats orally for 14 days. After the final drug administration, pain threshold pressure, colonic EC cell density and 5-HT content are evaluated and the methods used here are as same as that shown in above experiments.

[4] = system: normal rats; experiment: Colonic 5-HT content in normal rats; assay type: in vivo, rat; conditions: 10 mg/kg i.g., 14 days
Procedure: as §1
as §2, with “Briefly, Quercetin at the dose of 10 mg/kg is administered to normal rats orally for 14 days.” left out

O=c1c(O)c(-c2ccc(O)c(O)c2)oc2cc(O)cc(O)c12 [Quercetin, 2-(3,4-dihydroxyphenyl)-3,5,7-trihydroxy-4H-chromen-4-one]
5-HT content ([1]; 5 mg/kg i.g.): 5.15 ± 0.58 ng/mg
5-HT content ([1]; 10 mg/kg i.g.): 4.63 ± 0.92 ng/mg
5-HT content ([1]; 20 mg/kg i.g.): 5.50 ± 0.65^ ng/mg
Decrease of 5-HT content compared with the PI-IBS group ([1]; low dose (5 mg/kg)): 28%
Decrease of 5-HT content compared with the PI-IBS group ([1]; median dose (10 mg/kg)): 35%
Cells in G0/G1 phase ([2]; QGP-1, 25 μM): 56.0 ± 3.5%
Cells in G2/M phase ([2]; QGP-1, 25 μM): 21.8 ± 3.2%
Cells in S phase ([2]; QGP-1, 25 μM): 22.3 ± 0.3%
Cells in G0/G1 phase ([2]; QGP-1, 50 μM): 47.8 ± 4.0 %
Cells in G2/M phase ([2]; QGP-1, 50 μM): 20.2 ± 4.29%
Cells in S phase ([2]; QGP-1, 50 μM): 32.0 ± 0.4 %
Cells in G0/G1 phase ([2]; QGP-1, 100 μM): 8.4 ± 1.7 %
Cells in G2/M phase ([2]; QGP-1, 100 μM): 47.7 ± 2.2 %
Cells in S phase ([2]; QGP-1, 100 μM): 43.9 ± 0.7 %
EC cell density [3]: 91 ± 10 Number/mm^2
5-HT content [4]: 4.06 ± 0.48 ng/mg
